From patent publication US10537523B2, “Oral suspension comprising telmisartan” (Boehringer Ingelheim Vetmedica GmbH, priority 2009, dated 2020)

Assay: pH-dependent solubility of telmisartan in aqueous formulation
Assay type: physicochemical
Conditions: concentrations of active substance greater than 1 mg/ml
Description: The aim of the present invention is to provide a pharmaceutical solution, preferably a drinkable pharmaceutical solution containing an angiotensin-II-receptor antagonist. Preferred angiotensin II receptor antagonists are the substances known by the following INN names: candesartan, eprosartan, irbesartan, losartan, olmesartan, tasosartan, telmisartan and valsartan, and the pharmaceutically acceptable salts, hydrates or polymorphs thereof. The concentration of the angiotensin-II-receptor antagonist, preferably telmisartan, needed in the solution in order to achieve therapeutic doses should be between 1 mg/ml and 10 mg/ml. Moreover, because of the strongly pH-dependent solubility profile of telmisartan an aqueous formulation should have a pH that is either less than 2 or more than 10, in order to ensure a physically stable solution.
The very powerfully astringent effect of such acidic solutions makes acidic formulations of this kind totally unsuitable for long-term use particularly in children but also in domestic pets such as dogs and cats.
It has thus been shown that the stability of a drinkable telmisartan solution is dependent on the amount of reducing sugar contained in the sugar alcohol. The stability of a drinkable telmisartan solution deteriorates as the content of reducing sugars increases. […]

pH needed for dissolved active substance in acid range: less than 1.5
Compound: CCCc1nc2c(C)cc(-c3nc4ccccc4n3C)cc2n1Cc1ccc(-c2ccccc2C(=O)O)cc1 [telmisartan, 4′-((2-n-propyl-4-methyl-6-(1-methylbenz-imidazol-2-yl)-benzimidazol-1-yl)methyl)biphenyl-2-carboxylic acid]
